Literature values, collected in patent publication US20210268271A1, “SYSTEMS AND METHODS FOR VISCERAL NEUROMODULATION” (priority 2018, published 2021).

Legend:
[1] = test system: TRPV1 expressing cardiac nerve endings; settings: in vivo

Structure (SMILES) | duration of block (deep cardiac plexus) | further results
C[C@H](CCCC(C)(C)O)[C@H]1CC[C@H]2[C@@H]3CC=C4C[C@@H](O)CC[C@]4(C)[C@H]3CC[C@]12C [25-OH-cholesterol] |  | relative potency among cholesterol oxides (sympathetic ganglia): most potent
C=C(C)[C@]12C[C@@H](C)[C@@]34O[C@](Cc5ccccc5)(O[C@@H]1[C@@H]3C=C(COC(=O)Cc1ccc(O)c(OC)c1)C[C@]1(O)C(=O)C(C)=C[C@@H]41)O2 [RTX, resiniferatoxin] |  | duration of complete ablation of TRPV1 expressing cardiac nerve endings [1]: over 10 weeks
CCCCN1CCCCC1C(=O)Nc1c(C)cccc1C (stereo not shown) [bupivacaine] | approximately 2 hours | 
CCN(CC)CC(=O)Nc1c(C)cccc1C [lidocaine] | approximately 2 hours | 
